Data from patent publication US20210009551A1, “COMPOUNDS AND METHODS FOR TREATING FIBROSIS OR CANCER” (THE REGENTS OF THE UNIVERSITY OF CALIFORNIA, priority 2016, published 2021).
Where “and” joins values, the source holds several entries; their conditions need not be identical. Equal values may be shown once. Entries after “also recorded” stand apart in the source; their conditions may differ.

Key:
[1] = tested on: TGFβ1-induced epithelial-mesenchymal transition (EMT) in A549 adenocarcinoma cells; experiment: TGFβ1-induced EMT in A549 cells (image-based screen, immunoblot); format: cell-based; conditions: catechins 1 and 10 μM, 48 h
Procedure: High throughput screen and high content imaging analysis. A549 cell-based screening of inhibitors to TGFβ1-induced EMT from a bioactive small molecule library was performed in 384-well plate format and the images were captured and analyzed using GE IN Cell 2000 as described previously^16.
(§1) Immunoblot. Pulverized tissue and cells were lysed in RIP A buffer (150 mM NaCl, 50 mM Tris, pH 8.0, 1% Triton X-100, 0.5% sodium deoxycholate, 0.1% SDS, supplemented with protease and phosphatase inhibitors) and analyzed by immunoblotting. Densitometry was quantified using NIH Imaged software.

[2] = tested on: TGFβ1 signaling (p-smad3) in A549 cells; experiment: TGFβ1-induced p-smad generation in cells (immunoblot); format: cell-based; conditions: 0.5-10 μM
Procedure: as §1

[3] = target: T1, human TGFbeta receptor I and II (Homo sapiens, UniProt P36897); experiment: In vitro TGFβ receptor kinase assay (pull down); format: biochemical; conditions: 20 μM
T1 construct: expressed in transfected cells; host or cells: A549 cells, anti-Flag immunoprecipitate on Protein G-agarose
T1 sequence (P36897 34-503): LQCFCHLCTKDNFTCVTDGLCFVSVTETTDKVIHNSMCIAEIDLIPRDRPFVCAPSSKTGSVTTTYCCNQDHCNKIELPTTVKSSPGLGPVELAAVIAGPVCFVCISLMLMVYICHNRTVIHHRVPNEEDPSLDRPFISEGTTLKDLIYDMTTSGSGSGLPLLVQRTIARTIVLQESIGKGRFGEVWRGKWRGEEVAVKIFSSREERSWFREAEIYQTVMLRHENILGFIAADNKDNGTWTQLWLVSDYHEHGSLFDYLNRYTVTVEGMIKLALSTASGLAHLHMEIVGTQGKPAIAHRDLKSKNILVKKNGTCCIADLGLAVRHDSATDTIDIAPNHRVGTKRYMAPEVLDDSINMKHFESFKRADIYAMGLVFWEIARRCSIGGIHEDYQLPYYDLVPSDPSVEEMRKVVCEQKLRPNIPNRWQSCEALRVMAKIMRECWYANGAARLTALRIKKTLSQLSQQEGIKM
Procedure: In vitro TGFβ receptor kinase assay. A549 cells were transiently co-transfected with Flag-tagged human TGFbeta receptor I and II. After 24 hours the cells were lysed in 1% NP40 lysis buffer (1% NP40, 20 mM Tris pH7.6, 200 mM NaCl plus protease inhibitor cocktail, 10 mM NaF, 1 mM Na3VO4), and the type I and II receptors were immunoprecipitated using anti-Flag antibody and Protein G-agarose (Roche). The beads were washed three times with kinase buffer (0.01% Triton X-100, 25 mM HEPES, pH 7.4, 2 mM MnCl2, 10 mM MgCl2, 20 μM DTT, 0.1 mM NaF, 0.1 mM Na3 VO4). The kinase reactions were initiated by addition of 0.1 mM ATP in the presence or absence of inhibitors or lysate from A549 cells pre-treated with corilagin. The kinase reactions were terminated by addition of an equal volume of 2×sample buffer. The TGFbeta receptor kinase activity was analyzed by SDS-PAGE and immunoblotting with anti-phosphotyrosine monoclonal antibody 4G10 (EMD Millipore) and anti-Flag antibody.

[4] = target: T2, ALK5/TGFβRI catalytic domain (Homo sapiens, UniProt P36897); experiment: ALK5/TGFβRI catalytic domain kinase assay; format: biochemical
T2 construct: ALK5/TGFβRI kinase assays using purified catalytic domain was performed
T2 sequence (P36897 205-495 limits assumed): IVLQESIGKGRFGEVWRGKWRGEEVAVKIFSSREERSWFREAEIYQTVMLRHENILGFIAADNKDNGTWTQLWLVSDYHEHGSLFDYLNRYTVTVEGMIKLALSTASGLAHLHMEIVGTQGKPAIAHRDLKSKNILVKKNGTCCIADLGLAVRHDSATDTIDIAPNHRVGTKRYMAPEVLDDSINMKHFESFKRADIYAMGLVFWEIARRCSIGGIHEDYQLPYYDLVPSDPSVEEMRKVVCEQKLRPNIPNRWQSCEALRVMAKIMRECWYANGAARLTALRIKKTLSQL
Procedure: ALK5/TGFβRI catalytic domain kinase assay. ALK5/TGFβRI kinase assays using purified catalytic domain was performed. The reaction buffer contains 20 mM Hepes (pH 7.5), 10 mM MgCl2, 1 mM EGTA, 0.02% Brij35, 0.02 mg/ml BSA, 0.1 mM Na3VO4, 2 mM DTT, and 200 μM NAC. In brief, ten 3-fold series dilutions of 3Abd and 2Abd starting at 100 μM was delivered into kinase reaction mixture with kinase, cofactors, and substrate. After 20 min incubation at room temperature, ^33P-ATP was delivered into the mixture to initiate the reaction. Kinase activity was detected 2 h later by P81 filter-binding method.

human LOXL2 = target: T3, human LOXL2 (Homo sapiens, UniProt Q9Y4K0); experiment: Collagen crosslinking induced by recombinant LOXL2 in lung fibroblasts (Sircol assay); format: cell-based; conditions: primary human lung fibroblasts, 7 days
T3 sequence (Q9Y4K0 26-774): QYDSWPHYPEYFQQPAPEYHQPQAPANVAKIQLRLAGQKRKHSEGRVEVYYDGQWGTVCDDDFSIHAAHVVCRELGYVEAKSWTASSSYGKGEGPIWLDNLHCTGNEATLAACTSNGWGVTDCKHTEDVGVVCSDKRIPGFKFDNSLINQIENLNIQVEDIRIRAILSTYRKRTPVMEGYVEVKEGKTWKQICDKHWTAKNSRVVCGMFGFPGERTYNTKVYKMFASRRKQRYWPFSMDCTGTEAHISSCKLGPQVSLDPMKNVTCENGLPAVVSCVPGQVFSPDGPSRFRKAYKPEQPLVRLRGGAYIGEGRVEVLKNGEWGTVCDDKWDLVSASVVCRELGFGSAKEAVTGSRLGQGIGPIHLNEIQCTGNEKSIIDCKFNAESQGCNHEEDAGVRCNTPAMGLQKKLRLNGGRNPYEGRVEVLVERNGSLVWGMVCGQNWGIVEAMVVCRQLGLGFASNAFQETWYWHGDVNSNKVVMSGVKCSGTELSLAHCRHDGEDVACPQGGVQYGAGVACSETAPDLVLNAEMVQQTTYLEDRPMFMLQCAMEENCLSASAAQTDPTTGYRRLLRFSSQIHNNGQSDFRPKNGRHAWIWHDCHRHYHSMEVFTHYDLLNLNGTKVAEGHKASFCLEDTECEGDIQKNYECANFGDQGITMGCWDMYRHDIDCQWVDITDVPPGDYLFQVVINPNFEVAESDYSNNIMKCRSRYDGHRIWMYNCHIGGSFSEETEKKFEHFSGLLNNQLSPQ
Procedure: Preparation of insoluble cross-linked collagen. Fibroblasts were cultured on 10 cm dish until confluent. The medium was then changed to Dulbecco's modified Eagle's medium (DMEM) containing 5% FBS, 100 μM L-ascorbic acid with 500 kDa Dextran Sulfate at 100 μg/ml, and 50 ng/ml recombinant human LOXL2 (rhLOXL2) for 7 days^21,22. The cell layer was extracted with 0.5 M acetic acid and 0.1 mg/ml pepsin overnight at 4° C. The leftover insoluble fraction was further extracted and the insoluble cross-linked collagen measured using Sircol Insoluble Collagen Assay kit according to manufacture's instruction.

Solubility (statement) = format: physicochemical
[5] = tested on: C57BL/6 mice, intratracheal bleomycin; experiment: Bleomycin fibrosis model; format: in vivo
Procedure: For histological assessment of lung collagen, frozen sections of the left lung were stained using Masson's Trichrome stain kit (American MasterTech, Lodi, Calif., USA).
Bleomycin fibrosis model. Eight-week old C57BL/6 mice were intratracheally instilled with saline or 1.9 units/kg of bleomycin (Sigma-Aldrich). Mice were implanted with osmotic pumps loaded with ellagic acid salt (24 mg/kg/day, Day 10-Day 17), fed with red raspberry diet (Day 0-Day 21), or gavaged with corilagin (100 mg/kg, Day 10-Day 21). Controls were treated with control pump, control diet, or vehicle in the same formulation. The lungs were lavaged and followed by OCT embedding for imaging or snap freezing in liquid nitrogen for protein extraction or hydroxyproline assay.
Collagen content Lung or aorta collagen content was evaluated using hydroxyproline assay. Briefly, whole left lung tissue or aorta was hydrolyzed in 1 ml 12N HCl at 110° C. for 24 h and the hydroxyproline was detected by incubating with Chloramine T and p-dimethylaminobenzaldehyde and the absorbance was measured at 550 nm. Each sample was run in triplicate. Collagen content in lung or aorta tissues was expressed as micrograms of collagen per lung or aorta and was converted from micrograms of hydroxyproline.

**Q.** Which “inhibition of snail 1 and fibronectin in TGFβ1 stimulated A549 cells” value [1] does the source give for Oc1cc(O)c2c(c1)O[C@H](c1cc(O)c(O)c(O)c1)[C@H](O)C2 [EGC, epigallocatechin] here?
**A.** potent inhibitor

**Q.** Which “inhibition of TGFβ1-induced p-smad3 and snail 1 without pre-incubation and regardless of LOXL2 expression” value [2] does the source give for Nc1cccc(O)c1O [Target 3Abd, 3-aminobenzene-1,2-diol] here?
**A.** potent inhibitor

**Q.** And the “activity in a pull down kinase assay from cells overexpressing TGFβRI” value [3]?
**A.** blocked activity

**Q.** And the “direct inhibition of TGFβRI kinase activity” value [4]?
**A.** directly inhibit; also recorded: directly blocked

**Q.** And the IC50 ([4]; ten doses starting from 100 μM, 33P-ATP)?
**A.** ~3 µM and 3 µM

**Q.** For Nc1ccc(O)c(O)c1 [Target 4Abd, 4-aminobenzene-1,2-diol], which “inhibition of TGFβ1-induced p-smad3 and snail 1 without pre-incubation and regardless of LOXL2 expression” value [2] is on record?
**A.** not

**Q.** Which “activity in a pull down kinase assay from cells overexpressing TGFβRI” value [3] does the source give for Oc1cccc(Cl)c1O [3 Cc, 3-chlorocatechol] here?
**A.** not

**Q.** With NC(=O)c1ccc(-c2nc(-c3ccc4c(c3)OCO4)c(-c3ccccn3)[nH]2)cc1 [SB431542] as the compound, how does the “effect on collagen crosslinking induced by recombinant LOXL2” value (human LOXL2) read?
**A.** no effect

**Q.** With CC(=O)N[C@@H](CS)C(=O)O [NAC, N-acetylcysteine] as the compound, how does the “effect on collagen crosslinking induced by recombinant LOXL2” value (human LOXL2) read?
**A.** no effect

**Q.** For Oc1cc(O)c2c(c1)O[C@H](c1ccc(O)c(O)c1)[C@H](O)C2 [EC, epicatechin], which “inhibition of snail 1 and fibronectin in TGFβ1 stimulated A549 cells” value [1] is on record?
**A.** no activity

**Q.** With Nc1c(O)cccc1O [Target 2Abd, 2-aminobenzene-1,3-diol] as the compound, how does the “inhibition of TGFβ1-induced p-smad3 and snail 1 without pre-incubation and regardless of LOXL2 expression” value [2] read?
**A.** not

**Q.** And the “direct inhibition of TGFβRI kinase activity” value [4]?
**A.** not

**Q.** With O=c1oc2c(O)c(O)cc3c(=O)oc4c(O)c(O)cc1c4c23 [EA, Ellagic acid] as the compound, how does the solubility (Solubility (statement)) read?
**A.** poorly soluble

**Q.** And the “survival after intratracheal bleomycin” value ([5]; EA chow day 21, EA pump day 17)?
**A.** improve survival

**Q.** What about the “collagen accumulation after intratracheal bleomycin” value ([5]; ad libitum chow of 2% w/w raspberry extract rich in EA and EA precursors) of the same compound?
**A.** substantially block
